Structures are written as SMILES.

This data set can be described thus: Level of human metastin in plasma by EIA after sustained administration. It is filed as in vivo. To be noted: rat, sc, male Copenhagen rats, continuous s.c. administration by osmotic pumps at 6.0 nmol/hr, 7 days after implantation. How it is done: Male Copenhagen rats of 8 weeks old after birth (Charles River Laboratories, US) were anesthetized by giving an intraperitoneal injection of sodium pentobarbital (Nembutal, Dainippon Pharmaceutical Co., Ltd.) in a dose of 50 mg/kg body weight. Then, two ALZET osmotic pumps (Model 2001, volume: 200 μL, rate: 1.0 μL/hr) filled with a 3 mM human metastin solution in distilled water (metastin group) or with distilled water (distilled water group) were implanted subcutaneously in rats at the back (5 rats in each group), whereby human metastin was continuously administered at a rate of 6.0 nmol/hr in the metastin group. For the intraperitoneal administration of sodium pentobarbital, a 1 mL tuberculin syringe and a 26-gauge needle (both by Terumo Co., Ltd.) were used. Following weighing the body weight 7 days after the implantation of the pumps, the animal was sacrificed by decapitation to collect blood. At the same time, the weight of testis was weighed. […] The levels of FSH (follicle-stimulating hormone), LH (luteinizing hormone) and testosterone contained in plasma were determined by radioimmunoassay (Rat Follicle Stimulating Hormone (rFSH) [^125I] Biotrack Assay System with Magnetic Separation, Rat Luteinizing Hormone (rLH) [^125I] Biotrack Assay System with Magnetic Separation, all by Amersham Biosciences, and DPC.Total Testosterone by Diagnostic Products Corporation).

Compound `CC[C@H](C)[C@H](NC(=O)[C@H](CCC(N)=O)NC(=O)[C@H](CCCNC(=N)N)NC(=O)[C@H](CO)NC(=O)[C@H](Cc1c[nH]cn1)NC(=O)[C@@H]1CCCN1C(=O)[C@H](C)NC(=O)[C@H](CO)NC(=O)[C@H](CC(C)C)NC(=O)CNC(=O)[C@@H]1CCCN1C(=O)[C@H](CCC(N)=O)NC(=O)[C@H](CCC(N)=O)NC(=O)[C@H](CCCNC(=N)N)NC(=O)[C@H](CO)NC(=O)CNC(=O)[C@H](CO)NC(=O)[C@H](CO)NC(=O)[C@H](CCC(=O)O)NC(=O)[C@@H]1CCCN1C(=O)[C@@H]1CCCN1C(=O)[C@@H]1CCCN1C(=O)[C@H](CO)NC(=O)[C@H](CC(C)C)NC(=O)[C@H](CO)NC(=O)[C@@H](NC(=O)CN)[C@@H](C)O)C(=O)N1CCC[C@H]1C(=O)N[C@@H](C)C(=O)N1CCC[C@H]1C(=O)N[C@@H](CCC(N)=O)C(=O)NCC(=O)N[C@@H](C)C(=O)N[C@H](C(=O)N[C@@H](CC(C)C)C(=O)N[C@H](C(=O)N[C@@H](CCC(N)=O)C(=O)N[C@@H](CCCNC(=N)N)C(=O)N[C@@H](CCC(=O)O)C(=O)N[C@@H](CCCCN)C(=O)N[C@@H](CC(=O)O)C(=O)N[C@@H](CC(C)C)C(=O)N1CCC[C@H]1C(=O)N[C@@H](CC(N)=O)C(=O)N[C@@H](Cc1ccc(O)cc1)C(=O)N[C@@H](CC(N)=O)C(=O)N[C@@H](Cc1c[nH]c2ccccc12)C(=O)N[C@@H](CC(N)=O)C(=O)N[C@@H](CO)C(=O)N[C@@H](Cc1ccccc1)C(=O)NCC(=O)N[C@@H](CC(C)C)C(=O)N[C@@H](CCCNC(=N)N)C(=O)N[C@@H](Cc1ccccc1)C(N)=O)C(C)C)C(C)C` [Human metastin] came in with a level at time molar at 168 h of approximately 3.2 nM.

Source of the values: patent publication US7754220B2, “Methods of inhibiting secretion of follicle-stimulating hormone and testosterone” (Takeda Pharmaceutical Company Limited, priority 2003, dated 2010).
